This passage reports CC50 and EC50 results from ChEMBL document CHEMBL1201862, “PubChem BioAssay data set” (2004).

Activity calls are given as the source filed them. For most assays here, no stated cut-off is given here; in the data, actives have a measured EC50 and inactives only a lower limit.

Experiment [1] can be described thus: viability of uninfected HEp-2 cells – cell-based, HTS, cytotoxicity control for RSV inhibitor project, dose response (AID 2410). In kind it is functional. The conditions noted are these: human respiratory syncytial virus.
The nature of experiment [2]: Luminescence Cell-Based Dose Response HTS to Identify Inhibitors of 5'UTR Stem-Loop Driven Prion Protein mRNA Translation in H4 Neuroglioblastoma Cells. [Related pubchem assays: 1827 (Project Summary), 1813 (Primary HTS)]. In kind it is functional.
The nature of experiment [3]: alpha-synuclein stem-loop luciferase translation blockers – H4 neuroglioma cells, luminescence, confirmation (AID 1988). In kind it is functional, cell-based.
Experiment [4] can be described thus: luciferase reporter signal suppression in cells – H4 neuroglioma cells, luminescence, dose response (AID 1990). In kind it is functional, cell-based.
Experiment [5] addresses T1, Heat shock factor protein 1 (Mus musculus, UniProt P38532).
T1 sequence (P38532 whole entry): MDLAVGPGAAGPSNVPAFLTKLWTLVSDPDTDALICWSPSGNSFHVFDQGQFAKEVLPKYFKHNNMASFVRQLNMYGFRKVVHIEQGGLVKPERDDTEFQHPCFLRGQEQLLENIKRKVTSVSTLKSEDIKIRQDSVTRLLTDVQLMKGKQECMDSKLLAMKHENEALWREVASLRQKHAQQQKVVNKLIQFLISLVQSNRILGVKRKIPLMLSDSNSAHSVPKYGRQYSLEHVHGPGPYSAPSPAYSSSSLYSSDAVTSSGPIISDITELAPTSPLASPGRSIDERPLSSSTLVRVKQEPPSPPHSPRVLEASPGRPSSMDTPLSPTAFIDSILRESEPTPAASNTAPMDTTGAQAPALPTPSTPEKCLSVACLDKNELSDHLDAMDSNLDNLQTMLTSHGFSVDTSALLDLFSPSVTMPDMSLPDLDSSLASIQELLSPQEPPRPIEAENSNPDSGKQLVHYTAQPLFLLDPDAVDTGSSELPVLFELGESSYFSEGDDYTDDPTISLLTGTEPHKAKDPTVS
Nature of the experiment: decrease of HSF1-responsive luciferase luminescence – cell-based, NIH3T3, dose retest, confirmation (AID 2382).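 Further: NIH3T3 fibroblasts with HSF1-driven luciferase reporter stressed by proteasome inhibitor MG132; luminescence from HSF1-driven luciferase expression after 8 hours of MG132 stress.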 In kind it is functional.

Experiment [6] can be described thus: Luminescence Cell-Based Dose Confirmation HTS to Identify Activators of 5'UTR Stem-Loop Driven Alpha-Synuclein mRNA Translation in H4 Neuroglioblastoma Cells. [Related pubchem assays: 1829 (Project Summary), 1814 (Primary HTS)]. In kind it is functional.
In another experiment the test system is H4. Nature of the experiment: Luminescence Cell-Based Dose Response HTS to Identify Activators of 5'UTR Stem-Loop Driven Prion Protein mRNA Translation in H4 Neuroglioblastoma Cells. [Related pubchem assays: 1829 (Project Summary), 1814 (Primary HTS)]. In kind it is functional. The conditions noted are these: Homo sapiens.
Experiment [7] can be described thus: Luminescence Cell-Based Dose Response HTS to Identify Activators of Luciferase Translation or Activity in H4 […] Cells. [Related pubchem assays: 1829 (Project Summary), 1814 (Primary HTS)]. In kind it is functional.
Another experiment concerns Streptococcus. Nature of the experiment: GAS UMAA2166 growth inhibition – luminescence, BacTiterGlo, counter-screen for streptokinase expression inhibitor project, dose response (AID 1915).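 Further: potency for reduction of bacterial viability or growth.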 In kind it is functional, organism-based.
A further experiment deals with T2, Streptokinase A (Streptococcus pyogenes serotype M1, UniProt P10520).
T2 sequence (P10520 whole entry): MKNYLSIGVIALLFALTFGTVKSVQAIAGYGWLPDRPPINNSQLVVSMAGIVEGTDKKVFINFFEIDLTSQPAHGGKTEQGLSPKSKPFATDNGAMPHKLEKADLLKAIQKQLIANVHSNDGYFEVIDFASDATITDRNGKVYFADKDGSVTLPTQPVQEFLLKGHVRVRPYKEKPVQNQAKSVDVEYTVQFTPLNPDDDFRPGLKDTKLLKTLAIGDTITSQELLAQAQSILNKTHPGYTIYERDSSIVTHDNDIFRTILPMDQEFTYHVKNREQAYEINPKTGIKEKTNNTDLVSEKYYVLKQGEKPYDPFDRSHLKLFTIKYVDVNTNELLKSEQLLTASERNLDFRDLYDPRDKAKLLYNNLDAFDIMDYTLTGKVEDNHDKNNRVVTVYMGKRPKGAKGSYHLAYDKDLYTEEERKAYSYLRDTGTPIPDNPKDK
The experiment in a line: viability-normalized secreted streptokinase activity reduction – plasminogen activation absorbance, OD405, dose response (AID 1914).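 Further: secreted streptokinase activity via plasminogen activation per viability signal from cell pellet.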 In kind it is functional, Streptococcus pyogenes M1 GAS.

Experiment [8] has as its system Streptococcus sp. 'group A'. Nature of the experiment: Streptococcus pyogenes SK(-)GAS viability under kanamycin – luminescence, BacTiterGlo, confirmation, counter-screen for streptokinase expression inhibitor project, dose response (AID 1900). In kind it is functional, organism-based. For orientation: Counterscreens check selectivity or assay interference.
The target of experiment [9] is T3, Corticotropin-releasing factor receptor 2/Corticotropin-releasing factor-binding protein (Homo sapiens, UniProt P24387+Q13324).
T3 sequence (Q13324 whole entry): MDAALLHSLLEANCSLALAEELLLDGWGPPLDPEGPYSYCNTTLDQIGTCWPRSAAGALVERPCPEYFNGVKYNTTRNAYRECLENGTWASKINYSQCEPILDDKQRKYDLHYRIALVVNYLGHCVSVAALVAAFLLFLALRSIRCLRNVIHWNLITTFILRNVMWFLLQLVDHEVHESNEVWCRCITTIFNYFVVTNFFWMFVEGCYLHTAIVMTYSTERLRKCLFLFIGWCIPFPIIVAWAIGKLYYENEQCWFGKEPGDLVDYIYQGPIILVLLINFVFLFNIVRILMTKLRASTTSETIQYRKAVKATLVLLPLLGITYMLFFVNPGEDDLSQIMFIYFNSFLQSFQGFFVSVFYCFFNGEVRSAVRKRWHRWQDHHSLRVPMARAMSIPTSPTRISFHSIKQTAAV
T3 sequence (P24387 whole entry): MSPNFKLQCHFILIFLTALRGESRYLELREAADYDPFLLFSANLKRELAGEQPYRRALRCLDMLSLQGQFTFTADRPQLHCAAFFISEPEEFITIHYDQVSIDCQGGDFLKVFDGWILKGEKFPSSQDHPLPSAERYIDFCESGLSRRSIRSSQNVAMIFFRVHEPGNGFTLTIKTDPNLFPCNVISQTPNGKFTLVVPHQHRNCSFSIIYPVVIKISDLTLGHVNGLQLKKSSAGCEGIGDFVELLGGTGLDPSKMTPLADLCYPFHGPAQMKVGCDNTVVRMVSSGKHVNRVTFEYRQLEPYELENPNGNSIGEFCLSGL
The experiment in a line: activators of CRF receptor 2 with binding protein – uHTS hits, confirmation (AID 602473). The conditions noted are these: read-out: EC50_Mean. In kind it is functional.

Experiment [10] can be described thus: NIH-3T3 fibroblast cytotoxicity, dose response, cytotoxicity control, cell-based, fluorescence, Alamar Blue, secondary assay (AID 2327).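 Further: NIH-3T3 mouse fibroblasts cultured with fluconazole at 8 µg/mL.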 In kind it is functional. On the technique in general: Alamar Blue is a resazurin reagent that responds to reducing activity.

Broadly, the CC50 is the concentration at which the toxic effect on the cells reaches its halfway point.

With `Cc1[nH]c2ccc(C(=O)OC(C)C(=O)NC3CCCCC3C)cc2c1C` (stereo not drawn), in [1], the CC50 was 12.1 µM (active).

Regarding `COc1cc(CN(C2CCCCC2C)S(=O)(=O)c2ccc(S(=O)(=O)NC3CC3)cc2)cc(OC)c1OC` (stereo not drawn), the EC50 in experiment [2] was > 120 µM (not active); in experiment [3], > 120 µM (not active); in experiment [4], 103 µM (active).

With `CCN(CC)C(=S)SCC(=O)Nc1nc(=O)c2ccccc2s1`, the EC50 in experiment [5] is on record as > 195 µM (not active).

Consider `O=C(COC(=O)C1(c2ccccc2F)CCCC1)N1CCc2ccccc21`, for which, in experiment [5], the EC50 is recorded as > 195 µM (not active).

Turning to `COc1ccc(C(=O)NCc2cc3ccccc3n2C)cc1`, the figures for the EC50 (in [6]; in the experiment with H4; in experiment [7]) were 7.51 µM (active), 9.84 µM (active) and 12 µM (active), respectively.

As to `COc1cc(C(C)=O)ccc1OCc1cc(C(=O)N(C)CCC2CCCCO2)no1` (stereo not drawn), the EC50 in [6] was 0.831 µM (active); in the experiment on H4 it was 7.86 µM (active); in experiment [7] it was 80.8 µM (active).

For `CCOc1cc(-c2cc(-c3ccc(C)cc3)nc(N)c2C#N)ccc1O`, the figures for the EC50 in experiment [2], in experiment [3] and in experiment [4] were > 120 µM (not active), 10.7 µM (active) and 14.7 µM (active), respectively.

Regarding `CCCCc1c(C)nn(-c2nnc3c4ccccc4n(CC)c3n2)c1C`, the EC50 with Streptococcus was > 150 µM (not active); at Streptokinase A, > 150 µM (not active); in experiment [8] it was 4.61 µM (active). In experiment [1], the CC50 is 5.26 µM (active).

Take `Cc1ccc(-c2nnc(SCC#CCOC(=O)c3cccs3)o2)cc1`: the EC50 in experiment [6] was 8.34 µM (active); in the experiment on H4, 13.8 µM (active); in [7], 37.3 µM (active).

On to `Cc1ccc(N(CC(=O)NCCSc2nc3ccccc3s2)S(=O)(=O)c2ccccc2)c(C)c1`, for which the EC50 in experiment [2] is > 120 µM (not active); in [3], 14.8 µM (active); in experiment [4], > 120 µM (not active).

As to `CCOC(=O)C1(C)NC(c2ccc(O)cc2)C2C(=O)N(c3ccccc3)C(=O)C21` (stereo not drawn), the EC50 in experiment [5] is 93.8 µM (active).

As to `Cn1c(-c2ccsc2)c(-c2cccs2)c2cc(-c3cccc4[nH]ccc34)ccc21`, in experiment [1], the CC50 was 32.1 µM (active).

Turning to `COc1nc(-c2ccccc2)cc(-c2ccc3c(c2)OCO3)c1C#N`, the figures for the EC50 in experiment [2], in experiment [3] and in experiment [4] were 27.6 µM (active), 3.63 µM (active) and 11.2 µM (inconclusive), respectively.

In the case of `CCN(CC)CCSc1nnc2c3ccccc3n(CCc3ccccc3)c2n1`, the EC50 is > 120 µM (not active) in experiment [6], > 120 µM (not active) in the experiment with H4 and 16.1 µM (active) in [7].

Regarding `C#CCN1C(C)=C(C(=O)OC)C(c2cccc([N+](=O)[O-])c2)C(C(=O)OCC)=C1C` (stereo not drawn), the CC50 in [1] was 24.8 µM (active).

With `COCC1CCN(Cc2nc(-c3ccc4c(c3)OCO4)no2)C1` (stereo not drawn), the EC50 was 10.1 µM (active) in experiment [6], > 53 µM (inactive) in [9], 45 µM (active) with H4 and 13.1 µM (active) in [7].

In the case of `CSc1c(CC(=O)Nc2ccccc2)n(C)c2ccccc12`, the EC50 in experiment [2] is > 120 µM (not active); in [3], 0.344 µM (inconclusive); in experiment [4] it was > 120 µM (not active).

On to `Cc1ccc(/C=N\NC(=O)Cc2noc3ccccc23)cc1`, for which the EC50 in [5] is recorded as > 195 µM (not active).

For the compound `CCOC(=O)C1(CCc2ccccc2)CCN(C(=O)CCn2cncn2)CC1`, the EC50 was 28.8 µM (active) in experiment [6], 7.67 µM (active) with H4 and 12 µM (active) in experiment [7].

In the case of `CCOC(=O)C1CCCN(Cc2cc(=O)oc3cc(C)c(C(C)C)cc23)C1` (stereo not drawn), the CC50 in [1] was 31.3 µM (active).

`COC(=O)c1cnc(Oc2ccc(NC(=O)NC(=O)c3c(OC)cccc3OC)cc2)cc1C(F)(F)F`: the EC50 in experiment [2] is 0.142 µM (active); in experiment [3] it was 0.111 µM (active); in [4], 0.293 µM (active).

For `Fc1cccc(/C=N/NC(=S)Nc2ccccc2Cl)c1`, the values for the EC50 (in experiment [6]; with H4; in experiment [7]) were 19.6 µM (active), > 120 µM (not active) and 4.14 µM (active), respectively.

As for `Nc1n[nH]c(-c2cccc([N+](=O)[O-])c2)n1`, the EC50 in experiment [10] is > 150 µM (inactive).

Turning to `O=C(Nc1cccc(-c2cn3c(n2)SCC3)c1)c1ccc(Br)o1`, in [10], the EC50 was > 150 µM (inconclusive).

With `CC(=O)COc1ccc2c3c(c(=O)oc2c1C)CCCCC3`, the EC50 in experiment [6] was 28.8 µM (active); in the experiment on H4 it was > 120 µM (not active); in [7] it was 38.4 µM (active).

For `Cc1ccccc1C1=Nc2c(c(=O)n(C)c(=O)n2C)C(C(F)(F)F)(C(F)(F)F)N1`, the CC50 in experiment [1] is > 50 µM (active).

Take `CCOC(=O)Cc1csc(NC(=O)c2ccc(S(=O)(=O)N3CCCCC3)cc2)n1`: the half-maximal cytotoxic concentration (CC50) in experiment [1] is 11.5 µM (active).

Consider `CC(=O)O[C@H]1CC[C@@]2(C)[C@@H](CC[C@@H]3[C@@H]2CC[C@]2(C)[C@@H](C(C)(C)O)C[C@@H]32)C1`, for which, in experiment [1], the CC50 is 36.9 µM (active).

Take `Cc1c(C(=O)Nc2nnc(C(F)(F)F)s2)oc2ccccc12`: the EC50 was 3.22 µM (active) in experiment [6], 72.7 µM (active) with H4 and 6.63 µM (active) in experiment [7].

As to `O=C(c1ccccc1Cl)N1N=C(c2ccc(Br)cc2)CC1c1nc2ccccc2[nH]1` (stereo not drawn), the CC50 in experiment [1] is 14.3 µM (active).

Consider `Cc1c(Cl)ccc2c(C(=O)NC(C)c3ccncc3)cc(-c3ccncc3)nc12` (stereo not drawn), for which, in experiment [1], the CC50 is 25.1 µM (active).

For `COc1ccc2nc(-n3c(C)ccc3C)sc2c1`, the EC50 was 38 µM (active) in [6]; > 150 µM (not active) in the experiment with Streptococcus; 60.8 µM (active) in the experiment with H4; > 150 µM (not active) at Streptokinase A; > 150 µM (not active) in [8]; 8.93 µM (active) in experiment [7].

In the case of `COc1cccc(N2CCN(CC(=O)c3c[nH]c4ccc(OC)cc34)CC2C)c1` (stereo not drawn), in experiment [1], the CC50 is 38.1 µM (active).

Take `OCCCNc1nc(-c2ccc(Cl)cc2)nc2ccccc12`: in experiment [1], the CC50 is > 50 µM (active).
